# Data published in ChEMBL document CHEMBL1201862, “PubChem BioAssay data set” (2004).
# Active and inactive are the calls of the source.
# Tests used:
# Large T antigen = Large T antigen (Simian virus 40, UniProt P03070); type: functional, Betapolyomavirus macacae;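 also: Confirmatory-stage PubChem screen for compounds that inhibit SV40 T antigen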
# [1] = target: T1, Mannose-6-phosphate isomerase (Homo sapiens, UniProt P34949); assay: PMI enzyme inhibitors, confirmation, biochemical, fluorescence intensity (AID 1535)
# T1 sequence (P34949 whole entry): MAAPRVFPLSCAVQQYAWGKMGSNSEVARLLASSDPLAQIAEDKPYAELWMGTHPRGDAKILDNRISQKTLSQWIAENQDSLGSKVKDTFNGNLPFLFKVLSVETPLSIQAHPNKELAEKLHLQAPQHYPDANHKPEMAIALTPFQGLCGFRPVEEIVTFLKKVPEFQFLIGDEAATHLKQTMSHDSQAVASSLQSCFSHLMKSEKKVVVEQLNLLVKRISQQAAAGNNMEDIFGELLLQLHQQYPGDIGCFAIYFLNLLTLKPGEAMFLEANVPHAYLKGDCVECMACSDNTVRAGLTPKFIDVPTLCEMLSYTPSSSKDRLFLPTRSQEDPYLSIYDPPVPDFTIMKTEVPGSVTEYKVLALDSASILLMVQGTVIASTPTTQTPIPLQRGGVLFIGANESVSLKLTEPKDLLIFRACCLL
# Phosphomannomutase 2 = Phosphomannomutase 2 (Homo sapiens, UniProt O15305); assay: Counter screen SAR assay for PMM2 inhibitors via a fluorescence intensity assay. [Related pubchem assays (depositor defined):AID1545, AID1574]
# H4 = assay: Luminescence Cell-Based Dose Response HTS to Identify Activators of 5'UTR Stem-Loop Driven Prion Protein mRNA Translation in H4 Neuroglioblastoma Cells. [Related pubchem assays: 1829 (Project Summary), 1814 (Primary HTS)]; type: functional; details: Homo sapiens
# [2] = Luminescence Cell-Based Dose Response HTS to Identify Activators of Luciferase Translation or Activity in H4 […] Cells. [Related pubchem assays: 1829 (Project Summary), 1814 (Primary HTS)]; type: functional
# Keap1/Nrf2 = Keap1/Nrf2 (Homo sapiens, UniProt Q14145); assay: Keap1-Nrf2 protein-protein interaction inhibitors, dose response, biochemical, fluorescence polarization, cherry-picked samples (AID 588683)
# [3] = Shn3 3'UTR reporter inhibitors, dose response, cell-based, Clone20 osteoblasts, firefly luciferase, cherry-picked (AID 624132); type: functional;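 also: firefly luciferase luminescence from reporter carrying the Shn3 3'UTR in osteoblasts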
# BJ [4] = assay: cytotoxicity toward BJ-TERT-LT-ST fibroblasts, dose response, cell-based, RAS-independent, luminescence (AID 1935); type: functional; details: Homo sapiens;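 also: BJ fibroblasts immortalized with TERT plus LT and ST oncogenes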
# [5] = cytotoxicity toward DRD oncogenic fibroblasts, dose response, cell-based, non-viral oncogenic, luminescence (AID 1934); type: functional; details: Homo sapiens
# [6] = control 3'UTR Renilla luciferase suppression, dose response, counter-screen for Shn3 inhibitor project, cell-based, Clone20-Shn3RL, cherry-picked (AID 624133); type: functional
# BJ [7] = assay: cytotoxicity toward BJ-TERT fibroblasts, dose response, cell-based, RAS-independent, luminescence (AID 1933); type: functional; details: Homo sapiens
# Cysteine protease ATG4B = Cysteine protease ATG4B (Homo sapiens, UniProt Q9Y4P1); assay: ATG4B protease inhibitors, dose response, biochemical, fluorescence, set 2 (AID 588584); type: functional
# Phospholipase A2 = Phospholipase A2 (Homo sapiens, UniProt P04054); assay: PLA2 enzyme inhibitors, dose response, counter-screen for ATG4B inhibitor project, biochemical, set 2 (AID 588586); type: functional
# BJ [8] = assay: cells; type: functional, cell-based; details: Homo sapiens
# Sequence of Large T antigen (P03070 whole entry): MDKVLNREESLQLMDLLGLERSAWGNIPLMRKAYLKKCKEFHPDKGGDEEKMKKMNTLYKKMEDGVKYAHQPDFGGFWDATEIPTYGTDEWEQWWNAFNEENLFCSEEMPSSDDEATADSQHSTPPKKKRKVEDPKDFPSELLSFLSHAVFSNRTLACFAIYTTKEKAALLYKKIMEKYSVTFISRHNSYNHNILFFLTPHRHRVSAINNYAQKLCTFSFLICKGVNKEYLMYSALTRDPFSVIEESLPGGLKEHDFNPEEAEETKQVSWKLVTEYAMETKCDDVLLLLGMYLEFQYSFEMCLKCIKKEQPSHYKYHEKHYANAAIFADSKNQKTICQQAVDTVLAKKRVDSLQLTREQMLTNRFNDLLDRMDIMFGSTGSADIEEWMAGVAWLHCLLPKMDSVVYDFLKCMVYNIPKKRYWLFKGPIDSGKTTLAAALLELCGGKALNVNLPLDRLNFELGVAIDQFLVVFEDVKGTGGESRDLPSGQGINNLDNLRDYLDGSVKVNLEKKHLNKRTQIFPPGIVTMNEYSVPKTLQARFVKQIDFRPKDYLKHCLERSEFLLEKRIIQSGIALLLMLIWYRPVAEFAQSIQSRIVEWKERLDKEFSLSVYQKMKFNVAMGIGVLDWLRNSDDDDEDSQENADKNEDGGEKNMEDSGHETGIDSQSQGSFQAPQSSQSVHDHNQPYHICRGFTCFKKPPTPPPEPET
# Sequence of Cysteine protease ATG4B (Q9Y4P1 whole entry): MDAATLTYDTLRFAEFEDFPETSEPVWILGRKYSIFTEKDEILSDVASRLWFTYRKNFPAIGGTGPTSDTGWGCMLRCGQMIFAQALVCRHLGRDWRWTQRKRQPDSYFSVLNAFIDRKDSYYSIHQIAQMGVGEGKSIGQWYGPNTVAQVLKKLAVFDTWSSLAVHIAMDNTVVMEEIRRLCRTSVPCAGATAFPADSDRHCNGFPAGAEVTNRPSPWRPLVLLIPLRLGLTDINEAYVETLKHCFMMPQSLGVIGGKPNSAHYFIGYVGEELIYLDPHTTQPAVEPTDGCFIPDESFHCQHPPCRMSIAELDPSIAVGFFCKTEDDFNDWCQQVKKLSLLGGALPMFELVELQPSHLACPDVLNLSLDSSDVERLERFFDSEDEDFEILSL
# Sequence of Phosphomannomutase 2 (O15305 whole entry): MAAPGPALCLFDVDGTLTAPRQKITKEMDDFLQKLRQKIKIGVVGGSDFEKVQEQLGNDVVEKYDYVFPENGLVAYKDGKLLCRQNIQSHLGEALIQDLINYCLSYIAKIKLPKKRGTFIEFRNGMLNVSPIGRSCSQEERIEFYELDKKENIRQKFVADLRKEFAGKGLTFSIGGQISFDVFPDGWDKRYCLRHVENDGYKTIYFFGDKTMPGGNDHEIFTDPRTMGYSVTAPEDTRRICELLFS
# Sequence of Phospholipase A2 (P04054 whole entry): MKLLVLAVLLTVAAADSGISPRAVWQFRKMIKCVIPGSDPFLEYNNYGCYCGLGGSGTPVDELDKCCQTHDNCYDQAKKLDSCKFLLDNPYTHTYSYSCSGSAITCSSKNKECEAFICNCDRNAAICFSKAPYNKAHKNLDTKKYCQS
# Sequence of Keap1/Nrf2 (Q16236 whole entry): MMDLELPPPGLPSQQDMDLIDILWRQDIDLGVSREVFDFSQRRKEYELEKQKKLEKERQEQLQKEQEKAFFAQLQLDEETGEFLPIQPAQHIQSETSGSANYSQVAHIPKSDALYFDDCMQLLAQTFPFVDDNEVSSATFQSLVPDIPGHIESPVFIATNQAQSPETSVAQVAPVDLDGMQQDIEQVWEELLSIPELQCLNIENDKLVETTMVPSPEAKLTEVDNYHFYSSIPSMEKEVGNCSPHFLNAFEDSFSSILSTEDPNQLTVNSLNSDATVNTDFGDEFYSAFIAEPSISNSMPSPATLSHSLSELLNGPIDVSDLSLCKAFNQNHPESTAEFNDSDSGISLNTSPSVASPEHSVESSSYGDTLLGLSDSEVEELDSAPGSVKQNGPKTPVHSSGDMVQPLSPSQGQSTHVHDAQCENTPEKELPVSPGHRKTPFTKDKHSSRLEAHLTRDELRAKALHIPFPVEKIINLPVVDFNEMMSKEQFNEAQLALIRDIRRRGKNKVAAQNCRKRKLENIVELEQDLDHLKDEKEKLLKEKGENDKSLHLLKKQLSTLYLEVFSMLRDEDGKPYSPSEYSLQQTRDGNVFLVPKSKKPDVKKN
# Sequence of Keap1/Nrf2 (Q14145 whole entry): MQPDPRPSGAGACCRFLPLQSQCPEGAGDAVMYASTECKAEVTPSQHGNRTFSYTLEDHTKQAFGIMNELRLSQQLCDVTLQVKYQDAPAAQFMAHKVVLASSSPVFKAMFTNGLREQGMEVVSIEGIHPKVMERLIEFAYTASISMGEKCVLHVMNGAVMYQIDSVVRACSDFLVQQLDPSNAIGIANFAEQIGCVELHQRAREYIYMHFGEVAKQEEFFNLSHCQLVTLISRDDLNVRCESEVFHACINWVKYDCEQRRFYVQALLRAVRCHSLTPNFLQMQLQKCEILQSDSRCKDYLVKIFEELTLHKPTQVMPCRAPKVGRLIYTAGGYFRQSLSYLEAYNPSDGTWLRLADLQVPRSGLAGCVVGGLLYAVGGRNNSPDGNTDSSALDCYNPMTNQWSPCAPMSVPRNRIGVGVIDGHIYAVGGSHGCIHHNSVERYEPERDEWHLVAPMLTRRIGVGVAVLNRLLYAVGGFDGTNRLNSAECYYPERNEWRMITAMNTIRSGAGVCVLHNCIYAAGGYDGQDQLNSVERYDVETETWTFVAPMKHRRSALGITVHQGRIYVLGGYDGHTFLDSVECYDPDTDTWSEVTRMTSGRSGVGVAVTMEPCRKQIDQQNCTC
smiles,measurement,setting,value
CCOc1ccc(-c2n[nH]c(=S)[nH]2)cc1,IC50,Large T antigen,> 100 µM (active)
same,IC50,[1],39.1 µM (active)
same,IC50,Phosphomannomutase 2,> 100 µM (inactive)
O=c1c(-c2cc3ccccc3o2)[n+]([O-])c2ccccc2n1OCc1ccccn1,EC50,H4,65.5 µM (inconclusive)
same,EC50,[2],4.81 µM (active)
same,AC50,Keap1/Nrf2,> 52 µM (inactive)
O=C(OCCN1C(=O)c2cccc3c(N4CCOCC4)ccc(c23)C1=O)c1ccccc1Cl,AC50,[3],3.06 µM (active)
same,EC50,BJ [4],> 150 µM (inconclusive)
same,EC50,[5],18.8 µM (active)
same,AC50,[6],6.25 µM (active)
same,EC50,BJ [7],17.2 µM (active)
same,IC50,Cysteine protease ATG4B,> 80 µM (inactive)
same,IC50,Phospholipase A2,> 80 µM (inactive)
same,EC50,BJ [8],21.5 µM (active)
